This note sets out measurements from PMC11931356, “New benzimidazole derivatives containing hydrazone group as anticancer agents: Inhibition of carbonic anhydrase IX and molecular docking studies” (Archiv Der Pharmazie, 2025).

For one assay, the system named is CA IX enzyme. Description: Carbonic anhydrase IX inhibition assay (ELISA kit, CA IX protein level). The note with it: for Concentration (CA IX protein level, ELISA): ELISA kit, Control 250,225, lower = stronger inhibition, p < 0.001; for Concantration hCA IX: supplement table, same ELISA values. The format is biochemical, human. How it is done: The CA IX inhibitor acetazolamide was used as a positive control.
CA‐IX level was measured using the DCA900, R&D Systems ELISA Kit. In brief, 100 μL samples were incubated with 50 μL assay buffer for 2 h at room temperature (RT) in a 96‐well plate. The well was then washed four times with 400 µL wash buffer. After 200 µL of a conjugate buffer incubated at room temperature for 2 hours, the plate was washed four times with wash buffer. It was then incubated with 200 µL of substrate buffer for 30 min at room temperature. After washing, 50 µL of the stop solution was used to terminate the reaction. The plate was read at 450 nm using an Epoch™ microplate spectrophotometer (BioTek). The concentration of CA IX protein in each sample was calculated using a standard curve.
For orientation: An ELISA detects its analyte on a solid surface through an enzyme-linked reagent.

The subject of assay [1] is L929 (healthy mouse fibroblast cell line). Description: MTT cell viability assay, L929. The format is cell-based. The conditions noted are these: max 100 µM, mean ± SD. How it is done: (§1) Cell lines from the American Type Culture Collection (ATCC) were used to test the human breast adenocarcinoma cell line (MCF7), rat glial tumor (C6), healthy mouse fibroblast cell line (L929), and colon cancer (HT29). Cells were combined with solutions of 1% penicillin (Sigma Aldrich), 10% fetal bovine serum (FBS; Sigma Aldrich), and 89% DMEM (Dulbecco's modified Eagle's medium; Gibco, Thermo Fisher Scientific). The cells were incubated at 37°C with 95% humidity and 5% CO2 to allow the medium to develop.
(§2) All compounds were examined for their cytotoxic effects on the L929, HT29, MCF7, and C6 cell lines using MTT assay. Approximately 1 × 10^4 cells were seeded in each well. Cells were allowed to adhere for 24 h and then the syntheses were applied at different concentrations. All syntheses were run in three repetitions. Wells with a maximum of 100 µM product were incubated for 24 h. Cisplatin was used as the positive control, and all wells devoid of specimens served as negative controls. To identify metabolically active cells, the wells were incubated for 3 h at 37°C after being treated with MTT solution. Following the MTT interaction, DMSO solution was added to the wells after they had been drained. This solution was used to dissolve the formazan crystals, and a color shift indicated how many live cells were present in each well.
A general note: Tetrazolium assays rely on reduction of a dye to a coloured formazan, in cell work by metabolically active cells.

The subject of assay [2] is human breast adenocarcinoma cell line (MCF7). The assay can be described thus: MTT cell viability assay, MCF7. The conditions noted are these: max 100 µM, mean ± SD. The format is cell-based. Here is the method: as §1, §2
The subject of another assay is rat glial tumor (C6). Description: MTT cell viability assay, C6. The format is cell-based. The note with it: 24 h incubation, max 100 µM, mean ± SD. How it is done: as §1, §2
The next assay deals with HT29 (colon cancer). Description: MTT cell viability assay, HT29. The format is cell-based. The conditions noted are these: max 100 µM, mean ± SD. Here is the method: as §1, §2
In assay [3] the test system is Ki67. The assay can be described thus: Immunofluorescent microscope analysis, Ki67 in HT29. The format is cell-based. The conditions noted are these: HT29 cell line, compared with the cisplatin-treated group. How it is done:
(§3) Immunofluorescent microscope analysis was performed as in the previous study.^[ [33] ^]

Another assay concerns Caspase 3. The assay can be described thus: RT-PCR expression profile, Caspase 3 in C6. The conditions noted are these: C6 cell lines, effective dose, 24 h, vs control group, p < 0.05. It is filed as cell-based, rat. Here is the method:
(§4) Total RNA was first isolated from the cells to which effective doses of compounds 3d and/or 3j were applied at the 24th hour, by the kit protocols, and then cDNA was synthesized from this total RNA. The expression profiles of Caspase 3, BAX, and BCL‐2 genes from the cDNA samples obtained were analyzed with the RT‐PCR device by the kit protocol. Statistical analysis of the data with the ΔΔCT method was performed using the “RT2 profiler RT‐PCR Array Data Analysis version 3.5” (http://pcrdataanalysissabiosciences.com/pcr/arrayanalysis.php) software.

Assay [4] deals with BAX. The assay can be described thus: RT-PCR expression profile, BAX in C6. The format is cell-based, rat. The conditions noted are these: C6 cell lines, effective dose, 24 h, vs control group, p < 0.05. How it is done: as §4
In assay [5] the test system is Ki67. Description: Immunofluorescent microscope analysis, Ki67 in C6. The format is cell-based, rat. The conditions noted are these: C6 cell line, compared with the cisplatin-treated group. Here is the method: as §3
For assay [6], the system named is Ki67. Description: Immunofluorescent microscope analysis, Ki67 in MCF7. It is filed as cell-based, human. The conditions noted are these: MCF7 cell line, compared with the cisplatin-treated group. Here is the method:
as §3

For assay [7], the system named is BAX. The assay can be described thus: RT-PCR expression profile, BAX in HT29. The format is cell-based. The note with it: HT29 cell lines, effective dose, 24 h, vs control group, p < 0.05. Here is the method: as §4
For assay [8], the system named is BAX. The assay can be described thus: RT-PCR expression profile, BAX in MCF7. The note with it: MCF7 cell lines, effective dose, 24 h, vs control group, p < 0.05. It is filed as cell-based, human. Here is the method:
as §4

The subject of assay [9] is Ki67. Description: Immunofluorescent microscope analysis, Ki67 in L929. The format is cell-based, mouse. The note with it: L929 cell line, compared with the cisplatin-treated group. Here is the method: as §3
The test system of assay [10] is BAX. Description: RT-PCR expression profile, BAX in L929. The conditions noted are these: L929 cell lines, effective dose, 24 h, vs control group, p < 0.05. It is filed as cell-based, mouse. How it is done:
as §4

Setting [11] is: Mus musculus, L929, 24 h incubation.
The mark [12] stands for this setting: Homo sapiens, MCF7, 24 h incubation.
[13] abbreviates: Homo sapiens, HT-29, 24 h incubation.

With `N#Cc1ccc2[nH]c(-c3ccc(C(=O)NN=Cc4cccs4)cc3)nc2c1` [Compound 3g, 4‐(5‐Cyano‐1H‐benzo[d]imidazol‐2‐yl)‐N′‐[(thiophen‐2‐yl)methylene]benzohydrazide], in the assay on CA IX enzyme, the “Concentration (CA IX protein level, ELISA)” value (“Concentration” for short) is recorded as 95,745 pg/mL. Moreover, the “Concantration hCA IX” value with CA IX enzyme is 95,745 pg/ml. Besides, the IC50 (in assay [1] (setting [11]); in assay [2] (setting [12]); in the assay with rat glial tumor (C6) (Rattus norvegicus); with HT29 (colon cancer) (setting [13])) was above 100 µM in each case.
For `N#Cc1ccc2[nH]c(-c3ccc(C(=O)NN=Cc4cccnc4)cc3)nc2c1` [Compound 3h, 4‐(5‐Cyano‐1H‐benzo[d]imidazol‐2‐yl)‐N′‐[(pyridine‐3‐yl)methylene]benzohydrazide], in the assay on CA IX enzyme, the “Concentration” value was 119,425 pg/mL. For the same compound, the “Concantration hCA IX” value with CA IX enzyme is listed as 119,425 pg/ml. The IC50 (in assay [1] (setting [11]); in assay [2] (setting [12]); in the assay with rat glial tumor (C6) (Rattus norvegicus); in the assay with HT29 (colon cancer) (setting [13])) was above 100 µM each time.
As for `N#Cc1ccc2[nH]c(-c3ccc(C(=O)NN=Cc4ccco4)cc3)nc2c1` [Compound 3a, 4‐(5‐Cyano‐1H‐benzo[d]imidazol‐2‐yl)‐N′‐[(furan‐2‐yl)methylene]benzohydrazide], the 50% inhibitory concentration (IC50) worked out at 84.6 ± 9.6 µM in assay [1] (setting [11]), 86.4 ± 1.28 µM in assay [2] (setting [12]), 98.9 ± 7.94 µM in the assay with rat glial tumor (C6) (Rattus norvegicus) and 71.8 ± 3.68 µM in the assay on HT29 (colon cancer) (setting [13]).
Regarding `N#Cc1ccc2[nH]c(-c3ccc(C(=O)NN=Cc4ccc([N+](=O)[O-])s4)cc3)nc2c1` [Compound 3i, 4‐(5‐Cyano‐1H‐benzo[d]imidazol‐2‐yl)‐N′‐[(5‐nitrothiophen‐2‐yl)methylene]benzohydrazide], the “Concentration” value with CA IX enzyme was 92,225 pg/mL. Also, the “Concantration hCA IX” value with CA IX enzyme is recorded as 92,225 pg/ml. In addition, the IC50 (in [1] (setting [11]); in [2] (setting [12]); in the assay on rat glial tumor (C6) (Rattus norvegicus); in the assay on HT29 (colon cancer) (setting [13])) was above 100 µM in each case.
On to `Cc1ccc(C=NNC(=O)c2ccc(-c3nc4cc(C#N)ccc4[nH]3)cc2)o1` [Compound 3b, 4‐(5‐Cyano‐1H‐benzo[d]imidazol‐2‐yl)‐N′‐[(5‐methylfuran‐2‐yl)methylene]benzohydrazide], for which, in the assay with CA IX enzyme, the “Concentration” value was 175,225 pg/mL. Further, in the assay with CA IX enzyme, the “Concantration hCA IX” value is 175,225 pg/ml. Also, the half-maximal inhibitory concentration (IC50) in assay [1] (setting [11]) was above 100 µM; in [2] (setting [12]), 88.4 ± 2.18 µM; with rat glial tumor (C6) (Rattus norvegicus), above 100 µM; with HT29 (colon cancer) (setting [13]), 89.6 ± 5.74 µM.
Consider `N#Cc1ccc2[nH]c(-c3ccc(C(=O)NN=Cc4ccc([N+](=O)[O-])o4)cc3)nc2c1` [Compound 3c, 4‐(5‐Cyano‐1H‐benzo[d]imidazol‐2‐yl)‐N′‐[(5‐nitrofuran‐2‐yl)methylene]benzohydrazide], for which the “Concentration” value in the assay with CA IX enzyme is listed as 150,225 pg/mL. For the same compound, the “Concantration hCA IX” value in the assay on CA IX enzyme was 150,225 pg/ml. Further, the IC50 is above 100 µM in assay [1] (setting [11]), above 100 µM in assay [2] (setting [12]), above 100 µM in the assay on rat glial tumor (C6) (Rattus norvegicus) and 90.6 ± 12.1 µM in the assay with HT29 (colon cancer) (setting [13]).
In the case of `N#Cc1ccc2[nH]c(-c3ccc(C(=O)NN=Cc4ccncc4)cc3)nc2c1` [Compound 3e, 4‐(5‐Cyano‐1H‐benzo[d]imidazol‐2‐yl)‐N′‐[(pyridine‐4‐yl)methylene]benzohydrazide], the “Concentration” value in the assay with CA IX enzyme is recorded as 120,225 pg/mL. Moreover, the “Concantration hCA IX” value with CA IX enzyme is listed as 120,225 pg/ml. Further, the IC50 (in assay [1] (setting [11]); in [2] (setting [12]); in the assay with rat glial tumor (C6) (Rattus norvegicus); in the assay on HT29 (colon cancer) (setting [13])) was above 100 µM throughout.
As to `N.N.[Cl][Pt][Cl]` [Cisplatin, reference compound], the half-inhibitory concentration (IC50) was 88.8 ± 6.4 µM in [1] (24 h incubation), 29.6 ± 7.6 µM in assay [2] (24 h incubation), 39.4 ± 6.4 µM in the assay with rat glial tumor (C6) and 59.4 ± 12.6 µM with HT29 (colon cancer) (24 h incubation).
With “4‐(5‐Cyano‐1H‐benzo[d]imidazol‐2‐yl)‐N′‐[(imidazol‐2‐yl)methylene]benzohydrazide [Compound 3f]”, the “Concentration” value with CA IX enzyme was 93,975 pg/mL. Also, the “Concantration hCA IX” value in the assay with CA IX enzyme is 93,975 pg/ml. Besides, the concentration for half-maximal inhibition (IC50) (in assay [1] (24 h incubation); in [2] (24 h incubation); in the assay on rat glial tumor (C6); in the assay with HT29 (colon cancer) (24 h incubation)) was above 100 µM throughout.
As for `Cc1ccsc1C=NNC(=O)c1ccc(-c2nc3cc(C#N)ccc3[nH]2)cc1` [Compound 3d, 4‐(5‐Cyano‐1H‐benzo[d]imidazol‐2‐yl)‐N′‐[(3‐methylthiophen‐2‐yl)methylene]benzohydrazide], the “Concentration” value in the assay with CA IX enzyme was 83,975 pg/mL. Also, the “Concantration hCA IX” value in the assay with CA IX enzyme is 83,975 pg/ml. Further, the Ki67 immunolocalisation rate entry in the assay with Ki67 [3], in the assay on Ki67 [5], in the assay with Ki67 [6] and in the assay on Ki67 [9] was “significantly decreased” in each case. The “Caspase 3 expression increase” value in the assay on Caspase 3 came out at 2.75 times. Besides, the IC50 in [1] (setting [11]) is above 100 µM; in assay [2] (setting [12]), 25.6 ± 16.4 µM; with rat glial tumor (C6) (Rattus norvegicus), 20.5 ± 8.34 µM; in the assay on HT29 (colon cancer) (setting [13]) it was 39.1 ± 8.28 µM. Moreover, the BAX expression increase in the assay with BAX [4] worked out at 4.06 times; with BAX [7], 6.59 times; in the assay with BAX [8], 12.55 times.
Regarding `Cc1ccc(C=NNC(=O)c2ccc(-c3nc4cc(C#N)ccc4[nH]3)cc2)s1` [Compound 3j, 4‐(5‐Cyano‐1H‐benzo[d]imidazol‐2‐yl)‐N′‐[(5‐methylthiophen‐2‐yl)methylene]benzohydrazide], in the assay on CA IX enzyme, the “Concentration” value was 82,745 pg/mL. The “Concantration hCA IX” value with CA IX enzyme is recorded as 82,745 pg/ml. The Ki67 immunolocalisation rate result in the assay on Ki67 [3] and in the assay with Ki67 [9] was “significantly decreased” each time. The IC50 in assay [1] (setting [11]) is above 100 µM; in [2] (setting [12]), above 100 µM; in the assay with rat glial tumor (C6) (Rattus norvegicus) it was above 100 µM; in the assay with HT29 (colon cancer) (setting [13]) it was 45.8 ± 15.6 µM. The values for the BAX expression increase in the assay with BAX [10] and in the assay with BAX [7] were 105.7 times and 3.07 times, respectively.

The term IC50 denotes the point on the concentration scale where inhibition reaches its midpoint.
